The nature of this data set: xn = mol fraction of the nth substance listed. As to conditions: 298.15 K, 101 kPa.

`CC(C)=O` + CC(=O)[O-].CCCC[n+]1ccn(C)c1: where the note is “x1 = 1”, the speed of sound was found to be 1163 m/s.

Take `O` + CC(=O)[O-].CC[n+]1ccn(C)c1: the speed of sound (x1 = 1) turned out to be 1495 m/s.

For the compound `CC(=O)[O-].CCCC[n+]1ccn(C)c1` + CC(C)=O, the speed of sound by setting is: (x2 = 0) 1650 m/s; (x2 = 0.2024) 1600 m/s; (x2 = 0.3155) 1566 m/s; (x2 = 0.49) 1497 m/s; (x2 = 0.5915) 1445 m/s; (x2 = 0.689) 1384 m/s. For the same compound, the speed of sound came to 1301 m/s (x2 = 0.8036) and 1276 m/s (x2 = 0.8357).

In the case of `CC[n+]1ccn(C)c1.N#C[S-]` + CC(C)=O, the speed of sound runs as follows: (x2 = 0) 1851 m/s; (x2 = 0.1125) 1824 m/s; (x2 = 0.1889) 1798 m/s; (x2 = 0.3058) 1758 m/s; (x2 = 0.3917) 1720 m/s; (x2 = 0.5127) 1652 m/s. Also, the speed of sound (x2 = 0.6) stood at 1590 m/s, the speed of sound (x2 = 0.6892) was 1513 m/s, the speed of sound (x2 = 0.7842) was determined as 1417 m/s and the speed of sound (x2 = 0.9008) is 1286 m/s.

Consider `CC(C)=O` + CC[n+]1ccn(C)c1.N#C[S-], for which the speed of sound (x1 = 1) is 1166 m/s.

Consider `CC(=O)[O-].CC[n+]1ccn(C)c1` + O, for which the speed of sound is, setting by setting: (x2 = 0) 1735 m/s; (x2 = 0.1306) 1754 m/s; (x2 = 0.2326) 1763 m/s; (x2 = 0.2865) 1781 m/s; (x2 = 0.3671) 1795 m/s; (x2 = 0.4047) 1803 m/s. The speed of sound was 1811 m/s (x2 = 0.4896); 1838 m/s (x2 = 0.5258); 1841 m/s (x2 = 0.5507); 1910 m/s (x2 = 0.7151); 1922 m/s (x2 = 0.7317); 1952 m/s (x2 = 0.8099). The compound further gave a speed of sound (x2 = 0.9053) of 1915 m/s.

The values are drawn from a compilation of properties of binary mixtures (doi:10.1016/j.molliq.2021.118292).
